One block for each compound: values may come before it.
Experiments:
Type in all cases: physicochemical
[1] = Remote loading of aripiprazole into liposomes
Procedure: Liposomes (HSPC/Chol/PEG-DSPE 3/2/0.15 mol/mol/mol) containing 250 mM ammonium sulfate or 250 mM sodium sulfate were diluted in 1 mL of 50 mM citric acid, 10% (wt/wt) sucrose, pH 4.0 to a concentration of 6 mM phospholipid. 0.3 mg of aripiprazole was added from a stock solution of 15 mg/mL in DMSO, so that the final DMSO concentration was 2% (v/v). Fine precipitates were immediately observed after the drug was added to both liposome samples. The samples were heated at 65° C. for 30 min, the cooled on ice. The samples were filtered through a 0.2 um polyethersulfone syringe filter to remove any drug precipitates, followed by purification on a Sephadex G25 column equilibrated with HBS, pH 6.5 to remove any soluble extraliposome drug. The turbid fraction was collected and analyzed for lipid and drug as described above.

[2] = Aripiprazole precipitates from various solvents with liposomes, absorbance at 600 nm; conditions: drug initially dissolved in DMSO, 1-4-methylpyrrolidone, diethylenemonoethylether or polyethyleneglycol (MW400); 7.5% solvent; ammonium sulfate liposomes; 65°C 30 min
Procedure: Aripiprazole was dissolved in a range of solvents indicated below at 4 mg/mL. Liposomes composed of HSPC/Chol/PEG-DSPE (3/2/0.15 mol/mol/mol) that were prepared in 250 mM ammonium sulfate were used and diluted to 6 mM in Hepes buffered sucrose 10% (wt/wt) (HBSuc pH 6.5). 0.3 mg of drug was introduced by slow addition of each solvent while vortexing. The final solvent concentration was 7.5% for all samples. As controls, the drug was added from each solvent to the same volume of HBSuc pH 6.5 without the liposomes. The samples were heated at 65° C. for 30 min then cooled on ice.

[3] = Remote loading of carfilzomib into liposomes (drug/lipid ratio and loading efficiency by HPLC); conditions: for efficiency of loading: 100 g drug/mol HSPC
Procedure: Ammonium sulfate solution was prepared by dissolving ammonium sulfate solid to a final concentration of 250 mM (500 mequivilents of anion/L) no pH adjustment was made to yield a final pH of 5.6. Sodium sulfate solution (250 mM) was prepared by adding 0.35 g sodium sulfate to 10 mL deionized water.
The liposomes were formed by extrusion. Lipids were dissolved in ethanol at a concentration of 500 mM HSPC (591 mg/mL total lipid) at 65° C. and the 9 volumes of the trapping agent solution heated to 65° C. was added to the ethanol/lipid solution also at 65° C. The mixture was vortexed and transferred to a 10 mL thermostatically controlled (65° C.) Lipex Extruder. The liposomes were formed by extruding 10 times through polycarbonate membranes having 0.1 um pores. After extrusion the liposomes were cooled on ice. The transmembrane electrochemical gradient was formed by purification of the liposomes by dialysis in dialysis tubing having a molecular weight cut off of 12,000-14,000. The samples are dialyzed against 5 mM HEPES, 10% sucrose pH 6.5 (stirring at 4° C.) at volume that is 100 fold greater than the sample volume. The dialysate was changed after 2 h then 4 more times after 12 h each. The conductivity of the liposome solution was measured and was indistinguishable from the dialysis medium ˜40 μS/cm.
(§1) The lipid concentration is determined by measuring the cholesterol by HPLC using an Agilent 1100 HPLC with and Agilent Zorbax 5 um, […], Eclipse XDB-C8 column and a mobile phase of A=0.1% TFA, B=0.1% TFA/MeOH with an isocratic elution of 99% B. The flow rate is 1.0 mL/min, column temperature is 50° C., 10 μL injection and detection by absorbance at 205 nm. The retention time of cholesterol is 4.5 min. The liposome size is measured by dynamic light scattering.
Carfilzomib (Selleck Chemicals) was dissolved in DMSO at a concentration of 10 mg/mL. […] The liposomes were diluted with 50 mM citrate, 10% sucrose pH 4.0 to increase the volume to a point where after addition of the drug the final DMSO concentration is 2%. The carfilzomib/DMSO was added to the diluted liposomes, which were mixed at room temperature then transferred to a 65° C. bath and swirled every 30 s for the first 3 min and then swirled every 5 min over a total heating time of 30 min. All samples were very cloudy when the drug was added and all became clear (same as liposomes with no drug added) after 15 min. After heating for 30 min all samples were placed on ice for 15 min. The loaded liposomes were vortexed and 100 μL of sample was kept as the “before column” and the rest transferred to microcentrifuge tubes and spun at 10,000 RPM for 5 min. The supernatants were purified on a Sephadex G25 column collected and analyzed by HPLC. The HPLC analysis of carfilzomib was performed on the same system as described for analysis of cholesterol. The mobile phase consists of A=0.1% TFA, B=0.1% TFA/MeOH with a gradient elution starting at 50% B and increasing to 83% B in 13 min with 7 min equilibration back to 50% B. The flow rate is 1.0 mL/min, column temperature is 30 C, 10 μl injection and detection by absorbance at 205 nm. The retention time of carfilzomib is 12.2 min. The lipid concentration is determined by analysis of the cholesterol by HPLC. […]
Napthelenedisulfonic acid (NDS) was dissolved in water and titrated with diethylamine to a final pH of 8.0 and concentration of 250 mM (500 mequivilents of anion/L). […]
To ensure complete removal of the DMSO added with carfilzomib, the liposomal carfilzomib samples were dialyzed in dialysis tubing having a molecular weight cut off of 12,000-14,000. The samples are dialyzed against 5 mM HEPES, 10% sucrose pH 6.5 (stirring at 4° C.) at volume that is 100 fold greater than the sample volume. The dialysate was changed after 2 h then 2 more times after 12 h each. The carfilzomib liposomes were again analyzed for drug and lipid concentration as described above. […]

[4] = Liposome size by dynamic light scattering; conditions: carfilzomib-loaded liposomes, before lyophilizing
Procedure: as §1
See Example 1, Carfilzomib liposome entrapment by remote loading for details on how the liposomes were made, purified and characterized.

[5] = Light scattering at 600 nm during carfilzomib loading
Procedure: Liposomes containing 250 mM ammonium sulfate as trapping agent and 250 mM sodium sulfate as control liposomes which would not remote load drug. The liposomes were prepared and loaded using the procedure described in Example 1 except a disposable polystyrene cuvette was used as the reaction vessel. The scattering of light at 600 nm was measured with a UV/vis spectrophotometer during the loading process.

[6] = Reverse gradient-directed drug release from liposomes
Procedure: Liposomes were loaded with carfilzomib as described in Example 1 and were purified into deionized water. The sample was divided into two aliquots. To the first aliquot, concentrated Hepes pH 7.4 and NaCl was added so that the final concentration was 5 mM Hepes, 145 mM NaCl (HBS). To the second aliquot, concentrated ammonium sulfate was added so that the final concentration was 250 mM. No obvious physical changes were initially observed. The samples were then heated at 65° C. for 30 min. The samples were transferred to clean eppendorf tubes and centrifuged for 10,000 rpm for 5 min after which the supernatants and precipitates were separated and tested for carfilzomib content by HPLC assay. Released drug precipitated, liposome encapsulated drug remained in the supernatant. The % carfilzomib released was calculated by […]

[7] = Carfilzomib solubility as a function of DMSO content (optical density at 600 nm); conditions: drug 0.2 mg/mL
Procedure: Carfilzomib was added from a stock 10 mg/mL solution in DMSO to 1 mL of a citric acid/DMSO mixture so that the composition of DMSO was 2%, 25%, 50%, 75% and 100%. The final drug concentration was 0.2 mg/mL. The solutions were prepared and measured for optical density at 600 nm. The optical density at 600 nm is a good measure of how turbid or how much scattering material (such as drug precipitates) are in a solution, generally, the more precipitates the higher the absorbance. From FIG. 8 is apparent that at DMSO concentrations below 50% vol/vol (25° C.) and 25% vol/vol (65° C.) the drug remains in a precipitated form. Only when the concentration of DMSO is increased does it become effectively solubilized at this concentration of 0.2 mg/mL.

[8] = 500 mM ammonium sulfate liposomes, highest input ratio of Example 10
[9] = [(NH4)2SO4] 250 mM, input drug/HSPC 167.3 g/mol

- loading efficiency ([1]; drug introduced as SBCD complex (from the pharmaceutical product Abilify), same concentration and loading conditions): 68%
- Fold Increase NH4SO4/NaSO4 ([1]; loading into ammonium sulfate vs sodium sulfate liposomes): 49.3 fold
- clarification of drug precipitate with liposomes (absorbance at 600 nm) [2]: clarified the drug precipitate
Structure (SMILES): O=C1CCc2ccc(OCCCCN3CCN(c4cccc(Cl)c4Cl)CC3)cc2N1 [aripiprazole]

- drug/carrier total lipid weight ratio (highest reached) [3, 8]: 0.4
- final drug payload (highest reached) [3, 8]: 469±4.9 g drug/mol HSPC
- final drug to lipid ratio ([3]; 500 mM ammonium sulfate, input 639 g drug/mol HSPC): 440±10.2 g drug/mol HSPC
- remote loading ([3]; DMSO absent): practically no loading
- Drug payload/carrier weight ratio ([3]; [(NH4)2SO4] 250 mM, input drug/HSPC 91.8 g/mol): 0.07 g drug/g total lipid
- Drug payload/carrier weight ratio [3, 9]: 0.11 g drug/g total lipid
- efficiency [3, 9]: 76.0%
- Drug payload/carrier weight ratio ([3]; [(NH4)2SO4] 250 mM, input drug/HSPC 251.8 g/mol): 0.15 g drug/g total lipid
- Drug payload/carrier weight ratio ([3]; [(NH4)2SO4] 250 mM, input drug/HSPC 338.1 g/mol): 0.18 g drug/g total lipid
- Drug payload/carrier weight ratio ([3]; [(NH4)2SO4] 250 mM, input drug/HSPC 432.8 g/mol): 0.20 g drug/g total lipid
- Drug payload/carrier weight ratio ([3]; [(NH4)2SO4] 500 mM, input drug/HSPC 450.6 g/mol): 0.29 g drug/g total lipid
- Drug payload/carrier weight ratio ([3]; [(NH4)2SO4] 500 mM, input drug/HSPC 545.9 g/mol): 0.32 g drug/g total lipid
- Drug payload/carrier weight ratio ([3]; [(NH4)2SO4] 500 mM, input drug/HSPC 639.2 g/mol): 0.37 g drug/g total lipid
- Drug payload/carrier weight ratio ([3]; [(NH4)2SO4] 500 mM, input drug/HSPC 758.7 g/mol): 0.40 g drug/g total lipid
- efficiency of loading ([3]; drug from 10 mg/mL DMSO solution added in 5 increments over 1 min while vortexing): 96.3%±1.09%
- efficiency of loading ([3]; drug from 10 mg/mL DMSO solution added quickly, 2% DMSO): 97.0%±2.38%
- loading capacity, remote loaded (ammonium sulfate) vs sodium sulfate liposomes ([3]; drug input below/at 100 g drug/mol HSPC): > 3 fold
- effect of time between precipitate formation and loading on loading efficiency ([3]; liposomes added immediately, after 1 h or 12 h delay): does not have a significant impact
- PDI ([4]; trapping agent (NH4)2SO4, drug added quickly): 0.062
- PDI ([4]; trapping agent (NH4)2SO4, drug added slowly): 0.035
- PDI ([4]; trapping agent mellitic acid): 0.08
- PDI ([4]; trapping agent napthelenedisulfonic acid): 0.039
- time to clarification of the solution ([5]; 250 mM ammonium sulfate liposomes, light scattering at 600 nm during loading): ≤ 15 min
- drug released with reverse gradient vs control with no reverse gradient ([6]; ammonium sulfate vs Hepes buffered saline): 6.5 fold
- DMSO concentration below which the drug remains in a precipitated form ([7]; 25°C): below 50 % vol/vol
- DMSO concentration below which the drug remains in a precipitated form ([7]; 65°C): < 25 % vol/vol
- DMSO required to completely dissolve the drug ([7]; 65°C, citric acid/DMSO mixture): > 25 % vol/vol
Structure (SMILES): CC(C)C[C@H](NC(=O)[C@H](CCc1ccccc1)NC(=O)CN1CCOCC1)C(=O)N[C@@H](Cc1ccccc1)C(=O)N[C@@H](CC(C)C)C(=O)[C@@]1(C)CO1 [carfilzomib]
- clarification of the precipitate during loading ([5]; 250 mM sodium sulfate control liposomes, light scattering at 600 nm): do not show any clarification of the precipitate
- degradation of released drug by HPLC chromatogram ([6]; after loading and release from liposomes, compared with starting material): no degradation of carfilzomib had taken place

Reference: patent US10722467B2, “Remote loading of sparingly water-soluble drugs into liposomes” (ZONEONE PHARMA, INC., priority 2013, dated 2020)
